The values that follow come from ChEMBL document CHEMBL2203267, “Synthesis, antioxidant and antimicrobial activity of novel vanillin derived piperidin-4-one oxime esters: preponderant role of the phenyl ester substituents on the piperidin-4-one oxime core” (Bioorg Med Chem Lett, 2012).

As usually defined, the IC50 is the point on the concentration scale where inhibition reaches its midpoint.

The test system of experiment [1] is Staphylococcus aureus. Kind of experiment: Antibacterial activity against Staphylococcus aureus ATCC 25923 at 500 ug/mL after 24 hrs by well plate method. The following applies: ATCC 25923, 24 h, read-out: DIZ. Format: functional.
The test system of experiment [2] is Candida albicans. Briefly: Antifungal activity against Candida albicans MTCC 3017 at 500 ug/mL after 72 hrs by well plate method. The note with it: MTCC 3017, 72 h, read-out: DIZ. Format: functional.
The subject of experiment [3] is Candida albicans. Kind of experiment: Antifungal activity against Candida albicans MTCC 3017 at 1000 ug/mL after 72 hrs by well plate method. The note with it: MTCC 3017, 72 h, read-out: DIZ. In kind it is functional.
The subject of experiment [4] is Aspergillus flavus. Briefly: Antifungal activity against Aspergillus flavus MTCC 3306 at 500 ug/mL after 72 hrs by well plate method. In kind it is functional. The note with it: MTCC 3306, 72 h, read-out: DIZ.
In experiment [5] the test system is Staphylococcus aureus. Kind of experiment: Antibacterial activity against Staphylococcus aureus ATCC 25923 at 1000 ug/mL after 24 hrs by well plate method. The note with it: ATCC 25923, 24 h, read-out: DIZ. In kind it is functional.
The test system of experiment [6] is Radical scavenging activity. Briefly: Antioxidant activity assessed as DPPH radical scavenging activity after 20 mins by UV-vis spectrophotometric analysis. Format: functional. On the technique in general: DPPH is a stable violet radical that fades when it is reduced.
The test system of experiment [7] is Escherichia coli. Briefly: Antibacterial activity against Escherichia coli ATCC 25922 at 1000 ug/mL after 24 hrs by well plate method. Format: functional. The note with it: ATCC 25922, 24 h, read-out: DIZ.
Experiment [8] deals with Aspergillus flavus. Kind of experiment: Antifungal activity against Aspergillus flavus MTCC 3306 at 1000 ug/mL after 72 hrs by well plate method. Format: functional. The note with it: MTCC 3306, 72 h, read-out: DIZ.
Experiment [9] concerns Escherichia coli. Kind of experiment: Antibacterial activity against Escherichia coli ATCC 25922 at 500 ug/mL after 24 hrs by well plate method. The note with it: ATCC 25922, 24 h, read-out: DIZ. Format: functional.
Experiment [10] in a line: Antifungal activity against Chrysosporium keratinophilum MTCC 2827 at 500 ug/mL after 72 hrs by well plate method. In kind it is functional.
Experiment [11] deals with Pseudomonas aeruginosa. Kind of experiment: Antibacterial activity against Pseudomonas aeruginosa ATCC 27853 at 500 ug/mL after 24 hrs by well plate method. Format: functional. The note with it: ATCC 27853, 24 h, read-out: DIZ.
Experiment [12] deals with Pseudomonas aeruginosa. Kind of experiment: Antibacterial activity against Pseudomonas aeruginosa ATCC 27853 at 1000 ug/mL after 24 hrs by well plate method. In kind it is functional. The following applies: ATCC 27853, 24 h, read-out: DIZ.
Experiment [13] in a line: Antifungal activity against Chrysosporium keratinophilum MTCC 2827 at 1000 ug/mL after 72 hrs by well plate method. Format: functional.
Experiment [14] is described as follows: Antioxidant activity assessed as ABTS+ radical scavenging activity after 30 mins by UV-vis spectrophotometric analysis. In kind it is functional.
Another experiment deals with Liver microsomes. Briefly: Antioxidant activity in Wistar rat liver microsomes assessed as inhibition of lipid peroxidation after 60 mins by UV-vis spectrophotometric analysis. Format: functional, Microsome.

Take `COc1cc(C2CC(=NOC(=O)c3ccccc3O)CC(c3ccc(O)c(OC)c3)N2C)ccc1O` (stereo not given): the zone of inhibition at 500 µg/mL in the experiment on Staphylococcus aureus [1] amounted to 5 mm; in the experiment on Candida albicans [2] it was 2 mm; in the experiment with Aspergillus flavus [4], 3 mm; in the experiment with Escherichia coli [9], 4 mm; in the experiment on Pseudomonas aeruginosa [11] it was 3 mm. For the same compound, the zone of inhibition at 1000 µg/mL with Candida albicans [3] came out at 6 mm; with Staphylococcus aureus [5], 5 mm; in the experiment with Escherichia coli [7] it was 6 mm; in the experiment with Aspergillus flavus [8] it was 4 mm; in the experiment with Pseudomonas aeruginosa [12], 4 mm. Also, the IC50 worked out at 14.8 µM in experiment [6], 15.9 µM in experiment [14] and 24.1 µM in the experiment with Liver microsomes. For the same compound, the results for the inhibition zone (IZ) in experiment [10] and in [13] were 4 mm and 6 mm, respectively.
Regarding `COc1cc(C2CC(=NOC(=O)c3ccc(Cl)cc3)CC(c3ccc(O)c(OC)c3)N2C)ccc1O` (stereo not given), the zone of inhibition at 500 µg/mL came to 9 mm in the experiment with Staphylococcus aureus [1]; 16 mm in the experiment with Candida albicans [2]; 12 mm with Aspergillus flavus [4]; 12 mm in the experiment with Escherichia coli [9]; 12 mm with Pseudomonas aeruginosa [11]. The zone of inhibition at 1000 µg/mL came to 19 mm in the experiment on Candida albicans [3]; 13 mm with Staphylococcus aureus [5]; 17 mm in the experiment with Escherichia coli [7]; 15 mm in the experiment on Aspergillus flavus [8]; 15 mm in the experiment with Pseudomonas aeruginosa [12]. Also, the IC50 worked out at 110 µM in experiment [6], 112 µM in [14] and 121 µM in the experiment on Liver microsomes. For the same compound, the inhibition zone (IZ) came to 12 mm in experiment [10] and 10 mm in experiment [13].
Take `COc1cc(C2CC(=NOC(=O)c3ccc([N+](=O)[O-])cc3)CC(c3ccc(O)c(OC)c3)N2C)ccc1O` (stereo not given): the zone of inhibition at 500 µg/mL in the experiment on Staphylococcus aureus [1] worked out at 5 mm; in the experiment on Candida albicans [2], 7 mm; in the experiment with Aspergillus flavus [4], 3 mm; in the experiment with Escherichia coli [9], 4 mm; in the experiment on Pseudomonas aeruginosa [11] it was 5 mm. Moreover, the zone of inhibition at 1000 µg/mL was determined as 6 mm in the experiment with Candida albicans [3]; 8 mm in the experiment with Staphylococcus aureus [5]; 8 mm in the experiment with Escherichia coli [7]; 4 mm in the experiment with Aspergillus flavus [8]; 8 mm in the experiment with Pseudomonas aeruginosa [12]. The figures for the IC50 (in experiment [6]; in experiment [14]; in the experiment on Liver microsomes) were 76 µM, 79 µM and 82 µM, respectively. In addition, the results for the inhibition zone (IZ) in experiment [10] and in experiment [13] were 4 mm and 5 mm, respectively.
As to `COc1cc(C2CC(=NOC(=O)c3cccc(O)c3)CC(c3ccc(O)c(OC)c3)N2C)ccc1O` (stereo not given), the zone of inhibition at 500 µg/mL in the experiment with Staphylococcus aureus [1] was 5 mm; with Candida albicans [2], 1 mm; in the experiment on Aspergillus flavus [4], 1 mm; in the experiment with Escherichia coli [9] it was 6 mm; in the experiment on Pseudomonas aeruginosa [11] it was 3 mm. In addition, the zone of inhibition at 1000 µg/mL with Candida albicans [3] stood at 3 mm; in the experiment on Staphylococcus aureus [5] it was 7 mm; with Escherichia coli [7], 7 mm; with Aspergillus flavus [8] it was 2 mm; in the experiment on Pseudomonas aeruginosa [12] it was 5 mm. In addition, the IC50 in experiment [6] was found to be 15.6 µM; in [14] it was 16.5 µM; in the experiment on Liver microsomes, 25.3 µM. Further, the values for the inhibition zone (IZ) in experiment [10] and in experiment [13] were 1 mm and 2 mm, respectively.
